Reference: patent publication US11793748B1, “Pharmaceutical compositions of aspirin for parenteral administration” (GOOD HEALTH, LLC, priority 2019, dated 2023)

Columns and labels:
[1] = Stability of recrystallized aspirin powder; details: for % Assay / % S.A (salicylic acid impurity): 6 months 40° C./75% RH
[2] = Solubility testing of aspirin in commonly used co-solvents; type: physicochemical; details: 120 mg/3 mL; for Reconstitution time for milled API (Approx. 124 μm, BSS Sieve 120 passed): after shaking
Description: The solubility of aspirin was determined using propylene glycol and polyethylene glycol (PEG-300 and PEG-400), which are widely used in intravenous formulations.

[3] = Effect of bases on reconstitution time for aspirin in propylene glycol; type: physicochemical; details: aspirin 40 mg/mL, with shaking
Description: Solutions of propylene glycol with different bases were prepared by sonicating mixtures of propylene glycol and bases. Aspirin was added to those solutions and shaken in a circular motion.

[4] = Solubility and reconstitution of aspirin in semi-aqueous diluents; type: physicochemical; details: aspirin 80 mg (sieve 120 mesh passed), after shaking for 5 minutes
Description: Diluent solutions were prepared by mixing solvent and water. Aspirin was added and the vials were shaken in a swirling motion.

[5] = Effect of lactose on reconstitution time in solvent-water mixture; type: physicochemical; details: aspirin 80 mg, lactose 80 mg
Description: Diluent Preparation: Water, lactose, and base were taken in a vial and sonicated until a clear solution is formed. Solvent was then added and mixed for a minute. To these diluents, aspirin was added and shaken in a swirling motion.

[6] = Effect of lactose and mannitol combination on reconstitution time; type: physicochemical; details: aspirin 80 mg (120 sieve passed)
Description: A mixture of lactose and mannitol were tried to improve reconstitution time. Diluents were then prepared by dissolving base and sugars in water and followed by addition of PEG 300. The diluent was transferred to a vial containing aspirin, and the vial was shaken in a swirling motion.

[7] = Reconstitution time for aspirin-lactose premix; type: physicochemical; details: aspirin 80 mg + 160 mg lactose premix (both 120 sieve passed), water 1.5 ml
Description: […] The diluent was transferred to a vial containing aspirin triturated with lactose. The mixture was shaken in the vial in a swirling motion.

[8] = Stability of reconstituted aspirin solutions by HPLC; type: physicochemical
Description: Stability was determined by HPLC analysis using the following parameters:
Mobile Phase: Solution containing 15% acetonitrile and 85% water with 2 g/L of heptanesulfonate sodium. The pH of the solution was adjusted to 3.4.
Injection volume: 10 μl, the concentration of aspirin in sample and standard injections were maintained at about 0.5 mg/mL.
The stability of Trials 3-5 was tested using the HPLC method described above.

[9] = Reconstitution trials for micronized aspirin with aqueous solutions containing bases; type: physicochemical; details: aspirin 5.0 mg/mL; reconstitution with meglumine
Description: […] […] Shaken up and down vigorously to check reconstitution and clarity.
The reconstitution of higher doses of aspirin with aqueous solutions of bases indicate superiority using a combination of meglumine and sodium citrate over same bases used separately.
Therefore, these dilute solutions of the invention are suitable for slow infusion for a longer time. For example, the infusion can be made over 30 minutes to about 100 minutes with an infusion rate of about 3 mL/min to 0.8 mL/min. The rate of infusion of the invention can depend on the clinical conditions of patients, and can be modified as necessary. In certain cases, a bolus injection of concentrated aspirin solutions may be required. The aspirin solution (50 mg/mL) of the invention can be given as a bolus injection (e.g., 10 mL within 2-5 minutes).

[10] = solubilization accompanied by aspirin degradation; cited from earlier work
[11] = bicin, tricin, CAPS, TAPS, HEPES and AMPSO buffers; remained as suspended particles; cited from earlier work
[12] = Lysine 40 mg, water 1.8 ml + PEG 300 1.2 ml
[13] = Lysine 40 mg, water 1.8 ml + PEG 400 1.2 ml
[14] = Tris 40 mg, water 1.8 ml + PEG 300 1.2 ml
[15] = Tris 40 mg, water 1.8 ml + PEG 400 1.2 ml
[16] = Lysine 40 mg, lactose 80 mg + mannitol 80 mg, water 1.2 ml + PEG-300 1.8 ml
[17] = Meglumine 40 mg, lactose 20 mg + mannitol 60 mg, distilled water 1.2 ml + PEG 300 1.8 ml
[18] = Meglumine 40 mg, lactose 20 mg + mannitol 60 mg, distilled water 1.5 ml + PEG 300 1.5 ml
[19] = Meglumine 40 mg, lactose 20 mg + mannitol 60 mg, distilled water 1.8 ml + PEG 300 1.2 ml
[20] = Tris 40 mg, lactose 20 mg + mannitol 60 mg, distilled water 1.2 ml + PEG 300 1.8 ml
[21] = Tris 40 mg, lactose 20 mg + mannitol 60 mg, distilled water 1.5 ml + PEG 300 1.5 ml
[22] = Tris 40 mg, lactose 20 mg + mannitol 60 mg, distilled water 1.8 ml + PEG 300 1.2 ml
[23] = Tris 40 mg, lactose 80 mg + mannitol 80 mg, water 1.2 ml + PEG-300 1.8 ml
[24] = Tris 40 mg, lactose 80 mg + mannitol 80 mg, water 1.5 ml + PEG-300 1.5 ml
[25] = Tris 40 mg, lactose 80 mg + mannitol 80 mg, water 1.8 ml + PEG-300 1.2 ml
[26] = Aspirin API, not reconstituted (reference line of stability tables)

## CC(=O)Oc1ccccc1C(=O)O [Recrystallization from Isopropanol]
[1]; recrystallized powder
  % Assay: 99.35%

## CC(=O)Oc1ccccc1C(=O)O [Aspirin, aspirin]
[2]; PEG-300
  Reconstitution time for unmilled Aspirin: Not easily soluble,
  Reconstitution time for milled API (Approx. 124 μm, BSS Sieve 120 passed): Soluble in 3 minutes,
[2]; PEG-400
  Reconstitution time for unmilled Aspirin: Not easily soluble,
  Reconstitution time for milled API (Approx. 124 μm, BSS Sieve 120 passed): Soluble in 3 minutes,
[2]; propylene glycol
  Reconstitution time for unmilled Aspirin: Not easily soluble,
  Reconstitution time for milled API (Approx. 124 μm, BSS Sieve 120 passed): Soluble in 3 minutes,
[3]; propylene glycol with 10 mg/mL Arginine
  Reconstitution time for milled API (Approx. 124 μm, BSS Sieve 120 passed): 3 minutes with shaking.
[3]; propylene glycol with 10 mg/mL Lysine
  Reconstitution time for milled API (Approx. 124 μm, BSS Sieve 120 passed): 1.40 minutes with shaking.
[3]; propylene glycol with 10 mg/mL Meglumine
  Reconstitution time for milled API (Approx. 124 μm, BSS Sieve 120 passed): 2 minutes with shaking.
[3]; propylene glycol with 10 mg/mL Tromethamine
  Reconstitution time for milled API (Approx. 124 μm, BSS Sieve 120 passed): 1.45 minutes with shaking.
[4]; 1.8 mL PEG 300 + 1.2 mL water
  Observation: Turbid with particles
[4]; 1.8 mL PEG 400 + 1.2 mL water
  Observation: Turbid with particles
[4]; 1.8 mL propylene glycol + 1.2 mL water
  Observation: Turbid with particles
[5]; [12]
  Observation: Clear
  Reconstitution time: 3.15 min
[5]; [13]
  Observation: Clear
  Reconstitution time: 3.50 min
[5]; [14]
  Observation: Clear
  Reconstitution time: 3.20 min
[5]; [15]
  Observation: Clear
  Reconstitution time: 2.40 min
[6]; [16]
  Observation: hazy
  Reconstitution time: 2.00 min
[6]; [17]
  Observation: hazy
  Reconstitution time: 2.00 min
[6]; [18]
  Observation: Clear
  Reconstitution time: 2.20 min
[6]; [19]
  Observation: Clear
  Reconstitution time: 2.30 min
[6]; [20]
  Observation: Clear
  Reconstitution time: 2.00 min
[6]; [21]
  Observation: Clear
  Reconstitution time: 2.10 min
[6]; [22]
  Observation: Clear
  Reconstitution time: 2.30 min
[6]; [23]
  Observation: hazy
  Reconstitution time: 2.10 min
[6]; [24]
  Observation: Clear
  Reconstitution time: 2.25 min
[6]; [25]
  Observation: Clear
  Reconstitution time: 2.10 min
[7]; Tris 30 mg
  Observation: Clear
  Reconstitution time: 2.00 min
[7]; Tris 35 mg
  Observation: Clear
  Reconstitution time: 1.25 min
[7]; Tris 40 mg
  Observation: Clear
  Reconstitution time: 1.00 min
[7]; Tris 50 mg
  Observation: hazy
  Reconstitution time: 1.40 min
[8]; [26]
  % Salicylic acid: 0.24%
  Aspirin peak purity: 99.76%
[8]; higher concentration (50 mg/mL), aqueous solution containing both meglumine and sodium citrate, 2-8° C.
  period for which reconstituted aspirin was stable: about 5 hours
[9]
  time to clear solution on reconstitution: ≤ 2 min
[10]
  solubility in aqueous alkali hydroxide solutions and aqueous bicarbonate solutions: soluble
[11]
  solubility in aqueous buffers: poor
[1]; room temperature, inferred from accelerated stability data
  period stable at room temperature: at least 2 years

## CC(=O)Oc1ccccc1C(=O)O [Recrystallization from Acetone]
[1]; recrystallized powder
  % Assay: 97.20%
  % S.A (salicylic acid impurity): 0.505%

## CC(=O)Oc1ccccc1C(=O)O [Recrystallization from Ethanol]
[1]; recrystallized powder
  % Assay: 97.72%
  % S.A (salicylic acid impurity): 0.452%
[1]; recrystallized powder, accelerated conditions (6 months 40° C./75% RH)
  stability at accelerated conditions: stable
